According to patent US20110092703A1, “P2X4 RECEPTOR ANTAGONIST” (NIPPON CHEMIPHAR CO., LTD., priority 2007, published 2011):
Where a name gives a salt, the structure may show the parent alone.

Experiments:
[1] = molecular target: T1, human Serotonin transporter (Homo sapiens, UniProt P31645); experiment: [3H]paroxetine binding to serotonin transporter; settings: read-out: Percent inhibition (10^−7 M)
T1 construct: expressed in transfected cells; cell membranes
Method: After incubation for 60 min at 25° C., the reaction was terminated by rapid filtration through GF/B glass fiber filter and rinsed with ice-cold incubation buffer. The retained radioactivity on filter was measured by a liquid scintillation counter. Nonspecific binding was defined with 10 μM imipramine and subtracted from total binding to determine specific binding. Inhibition activities of tested compounds were determined as a percent inhibition of the specific binding.

[2] = molecular target: T2, P2X4 receptor (Homo sapiens, UniProt Q99571); experiment: P2X4 antagonism study by measurement of intracellular Ca2+ influx response; type: cell-based; parameters: expressed in transfected cells; settings: 1321N1 cells stably expressing human P2X4; 1 μM ATP; compound 15 min before ATP; Fura-2 F340/F380; read-out: Inhibitory activity: IC50
T2 sequence (Q99571 1-388): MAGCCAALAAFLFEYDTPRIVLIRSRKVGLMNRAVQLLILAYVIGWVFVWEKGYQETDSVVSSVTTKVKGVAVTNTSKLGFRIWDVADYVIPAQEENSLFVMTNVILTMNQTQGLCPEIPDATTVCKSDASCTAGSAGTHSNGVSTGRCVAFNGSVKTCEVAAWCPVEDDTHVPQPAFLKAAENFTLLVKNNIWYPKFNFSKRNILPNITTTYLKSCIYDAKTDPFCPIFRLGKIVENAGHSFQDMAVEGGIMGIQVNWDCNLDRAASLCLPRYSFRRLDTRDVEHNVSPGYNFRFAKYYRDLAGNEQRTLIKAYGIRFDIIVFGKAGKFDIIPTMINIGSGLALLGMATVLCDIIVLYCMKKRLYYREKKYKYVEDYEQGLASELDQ
Method: (§1) 1321N1 cells stably expressing human P2X4 receptors were adopted for calcium influx assay. P2X4/1321N1 cells were plated in 96-well assay plate and cultured 24 hours in an atmosphere of 5% CO2 at 37° C. Fura-2 AM calcium indicator in assay buffer (150 mM NaCl, 5 mM KCl, 1.8 mM CaCl2, 1.2 mM MgCl2, 10 mM D-glucose and 25 mM HEPES, pH 7.4) was loaded onto cells for 1 hour at room temperature and the fluorescence was detected by FLUOstar Optima micro plate reader (BMG labtech). The cells were alternatively illuminated with two excitations wavelengths (340 nm and 380 nm) via xenon lamp and the emitted fluorescence was measured at 510 nm. The fluorescence changes after the treatment of 1 μM ATP were monitored and determined the fluorescence ratio (F340/F380) as the index of intracellular calcium change. Tested compound were treated to cells 15 min before the addition of ATP and the inhibition activity of compounds was calculated by comparing the Ca^2+ response with control in the absence of tested compound.
as §1, with “pH7.4)” for “pH 7.4)”

[3] = molecular target: T2, P2X4 receptor; settings: disclosed in WO 2007/049825 / Abstract P3-N-114; cited from earlier work
[4] = molecular target: T3, serotonin reuptake (Rattus norvegicus, UniProt P31652); experiment: Serotonin reuptake inhibition assay ([3H]serotonin, synaptosomes prepared from the rat brain); type: biochemical; settings: 10^−7 M compound, 15 min at 37° C., read-out: Percent inhibition (10^−7 M)
T3 construct: synaptosomes prepared from the rat brain; from tissue; host or cells: rat brain synaptosomes
T3 sequence (P31652 whole entry): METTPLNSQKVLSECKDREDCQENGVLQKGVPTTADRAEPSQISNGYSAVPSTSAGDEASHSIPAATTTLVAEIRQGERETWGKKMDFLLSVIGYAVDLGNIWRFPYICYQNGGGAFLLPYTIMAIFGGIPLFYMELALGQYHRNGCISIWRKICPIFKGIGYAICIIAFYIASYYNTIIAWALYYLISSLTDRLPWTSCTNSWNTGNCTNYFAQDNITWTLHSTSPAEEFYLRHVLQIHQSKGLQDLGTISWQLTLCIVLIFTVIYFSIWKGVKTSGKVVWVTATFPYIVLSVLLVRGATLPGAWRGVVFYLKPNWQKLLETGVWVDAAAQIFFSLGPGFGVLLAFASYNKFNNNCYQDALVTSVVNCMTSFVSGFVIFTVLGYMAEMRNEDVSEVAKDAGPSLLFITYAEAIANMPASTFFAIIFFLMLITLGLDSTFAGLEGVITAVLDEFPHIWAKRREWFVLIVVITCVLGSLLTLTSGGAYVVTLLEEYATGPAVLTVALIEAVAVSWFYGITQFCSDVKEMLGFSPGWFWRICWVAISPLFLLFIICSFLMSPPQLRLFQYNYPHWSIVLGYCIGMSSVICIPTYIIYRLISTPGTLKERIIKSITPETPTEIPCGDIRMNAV
Method: 100 μg of the synaptosomes prepared from the rat brain were incubated for 15 min at 37° C. with 0.1 μCi [^3H]serotonin in the presence of tested compound in a buffer containing 106.2 mM NaCl, 4.5 mM KCl, 2.25 mM MgSO4, 1.08 mM NaH2PO4, 22.5 mM NaHCO3, 9.9 mM glucose, 9 μM EGTA and 45 μM ascorbic acid (pH 7.4). Basal control activity was determined by incubating the same mixture for 15 min at 4′C in the presence of 10 μM imipramine. Following incubation, the samples were filtered rapidly under vacuum through GF/B glass fiber filters and rinsed twice with ice-cold incubation buffer using a cell harvester. The retained radioactivity on filters was measured in TopCount scintillation counter. The results were expressed as a percent inhibition of the specific binding in the absence of tested compound.
100 μg of the synaptosomes prepared from the rat brain were incubated for 15 min at 37° C. with 0.1 μCi [^3H]serotonin in the presence of tested compound in a buffer containing 106.2 mM NaCl, 4.5 mM KCl, 2.25 mM MgSO4, 1.08 mm NaH2PO4, 22.5 mM NaHCO3, 9.9 mM glucose, 9 μM EGTA and 45 μM ascorbic acid (pH 7.4). Basal control activity was determined by incubating the same mixture for 15 min at 4° C. in the presence of 10 μM imipramine. […] The retained radioactivity on filters was measured in TopCount scintillation counter. […]

T1 sequence (P31645 whole entry): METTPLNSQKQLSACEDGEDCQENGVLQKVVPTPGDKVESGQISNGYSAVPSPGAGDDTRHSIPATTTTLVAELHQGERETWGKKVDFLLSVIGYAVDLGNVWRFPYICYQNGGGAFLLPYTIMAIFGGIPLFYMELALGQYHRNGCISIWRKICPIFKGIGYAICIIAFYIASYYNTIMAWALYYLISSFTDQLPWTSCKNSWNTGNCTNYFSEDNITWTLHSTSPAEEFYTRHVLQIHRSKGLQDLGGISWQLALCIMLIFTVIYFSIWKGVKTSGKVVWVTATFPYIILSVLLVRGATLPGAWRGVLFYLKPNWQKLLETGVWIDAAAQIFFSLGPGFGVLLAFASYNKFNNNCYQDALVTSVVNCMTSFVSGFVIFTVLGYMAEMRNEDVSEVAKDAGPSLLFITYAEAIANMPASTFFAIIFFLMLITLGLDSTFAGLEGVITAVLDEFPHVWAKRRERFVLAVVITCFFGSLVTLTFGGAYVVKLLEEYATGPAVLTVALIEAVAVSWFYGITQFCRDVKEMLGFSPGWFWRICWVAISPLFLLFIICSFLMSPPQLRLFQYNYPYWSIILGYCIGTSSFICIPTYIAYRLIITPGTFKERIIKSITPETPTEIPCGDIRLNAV

**Q.** Which results are given for `Clc1ccc(OCC2CNCCN2c2ccc3c(c2)CCC3)cc1` (centres unmarked) [Example 10, 2-(4-Chlorophenoxymethyl)-1-indan-5-yl-piperazine hydrochloride]?
**A.** inhibition at 0.1 µM [1]: 44%; IC50 [2]: 4.7 µM

**Q.** With `Fc1ccc([C@@H]2CCNC[C@H]2COc2ccc3c(c2)OCO3)cc1` [Paroxetine] as the compound, how does the “P2X4 receptor antagonism (in words)” value [3] read?
**A.** shows P2X4 receptor antagonism

**Q.** What does the source list for `CC(C)NS(=O)(=O)c1ccc(OCC2CNCCN2c2ccc(C(C)C)cc2)cc1` (centres unmarked) [Example 16, 1-(4-Isopropylphenyl)-2-[4-(isopropylsulfamoyl)phenoxymethyl]piperazine hydrochloride]?
**A.** inhibition at 0.1 µM [4]: 11%; IC50 [2]: 2.8 µM

**Q.** What does the source list for `CC(C)c1cccc(N2CCNCC2COc2ccc(Cl)cc2)c1` (centres unmarked) [Example 3, 2-(4-Chlorophenoxymethyl)-1-(3-isopropylphenyl)piperazine hydrochloride]?
**A.** inhibition at 0.1 µM [1]: 13%; IC50 [2]: 8.3 µM

**Q.** With `CN(C)CCCN1c2ccccc2CCc2ccccc21` [imipramine] as the compound, how does the “P2X4 receptor antagonism (in words)” value [3] read?
**A.** shows P2X4 receptor antagonism

**Q.** For `CCCc1ccc(N2CCNCC2COc2ccc(Cl)cc2)cc1` (centres unmarked) [Example 2, 2-(4-Chlorophenoxymethyl)-1-(4-propylphenyl)piperazine hydrochloride], which inhibition at 0.1 µM [1] is on record?
**A.** 31%

**Q.** And the IC50 [2]?
**A.** 7.6 µM

**Q.** Which IC50 [2] does the source give for `CC(C)c1cccc(N2CCNCC2COc2ccc(OC(C)(C)C)cc2)c1` (centres unmarked) [Example 13, 2-(4-tert-Butoxyphenoxymethyl)-1-(3-isopropylphenyl)piperazine hydrochloride] here?
**A.** 2.9 µM

**Q.** With `CC(C)c1ccc(N2CCNCC2COc2ccc(Cl)cc2)cc1` (centres unmarked) [Example 1, 2-(4-Chlorophenoxymethyl)-1-(4-isopropylphenyl)piperazine hydrochloride] as the compound, how does the inhibition at 0.1 µM [1] read?
**A.** 17%

**Q.** And the IC50 [2]?
**A.** 6.9 µM

**Q.** With `CC(C)c1ccc(N2CCNCC2COc2ccc(S(N)(=O)=O)cc2)cc1` (centres unmarked) [Example 15, 1-(4-Isopropylphenyl)-2-(4-sulfamoylphenoxymethyl)piperazine hydrochloride] as the compound, how does the IC50 [2] read?
**A.** 6.3 µM

**Q.** With `Cc1cc(C)c(N2CCNCC2COc2ccc(Cl)cc2)c(C)c1` (centres unmarked) [Example 7, 2-(4-Chlorophenoxymethyl)-1-(2,4,6-trimethylphenyl)piperazine hydrochloride] as the compound, how does the inhibition at 0.1 µM [1] read?
**A.** 26%

**Q.** And the IC50 [2]?
**A.** 3.1 µM

**Q.** With `CC(C)c1ccc(N2CCNCC2COc2ccc3c(c2)OCO3)cc1` (centres unmarked) [Example 11, 1-(4-Isopropylphenyl)-2-(3,4-methylenedioxyphenoxymethyl)piperazine hydrochloride] as the compound, how does the IC50 [2] read?
**A.** 7.4 µM

**Q.** With `CC(C)c1ccc(N2CCNCC2CSc2ccc(Cl)cc2)cc1` (centres unmarked) [Example 17, 2-(4-Chlorophenylsulfanylmethyl)-1-(4-isopropylphenyl)piperazine hydrochloride] as the compound, how does the inhibition at 0.1 µM [4] read?
**A.** 4%

**Q.** And the IC50 [2]?
**A.** 8.1 µM

**Q.** For `Cc1cccc(C)c1N1CCNCC1COc1ccc(Cl)cc1.Cl` (centres unmarked), which melting point is on record?
**A.** 97 to 100 °C
